Values quoted from earlier work in patent US12637520B2, “Conjugation chemistry for catalytic antibody 38C2” (UNIVERSITY OF FLORIDA RESEARCH FOUNDATION, INCORPORATED, priority 2019, dated 2026).

Target: open conformation of integrin α4β1 (Homo sapiens, UniProt P05556+P13612)
Settings: cited from earlier work

open conformation of integrin α4β1, sequence (P13612 34-1032): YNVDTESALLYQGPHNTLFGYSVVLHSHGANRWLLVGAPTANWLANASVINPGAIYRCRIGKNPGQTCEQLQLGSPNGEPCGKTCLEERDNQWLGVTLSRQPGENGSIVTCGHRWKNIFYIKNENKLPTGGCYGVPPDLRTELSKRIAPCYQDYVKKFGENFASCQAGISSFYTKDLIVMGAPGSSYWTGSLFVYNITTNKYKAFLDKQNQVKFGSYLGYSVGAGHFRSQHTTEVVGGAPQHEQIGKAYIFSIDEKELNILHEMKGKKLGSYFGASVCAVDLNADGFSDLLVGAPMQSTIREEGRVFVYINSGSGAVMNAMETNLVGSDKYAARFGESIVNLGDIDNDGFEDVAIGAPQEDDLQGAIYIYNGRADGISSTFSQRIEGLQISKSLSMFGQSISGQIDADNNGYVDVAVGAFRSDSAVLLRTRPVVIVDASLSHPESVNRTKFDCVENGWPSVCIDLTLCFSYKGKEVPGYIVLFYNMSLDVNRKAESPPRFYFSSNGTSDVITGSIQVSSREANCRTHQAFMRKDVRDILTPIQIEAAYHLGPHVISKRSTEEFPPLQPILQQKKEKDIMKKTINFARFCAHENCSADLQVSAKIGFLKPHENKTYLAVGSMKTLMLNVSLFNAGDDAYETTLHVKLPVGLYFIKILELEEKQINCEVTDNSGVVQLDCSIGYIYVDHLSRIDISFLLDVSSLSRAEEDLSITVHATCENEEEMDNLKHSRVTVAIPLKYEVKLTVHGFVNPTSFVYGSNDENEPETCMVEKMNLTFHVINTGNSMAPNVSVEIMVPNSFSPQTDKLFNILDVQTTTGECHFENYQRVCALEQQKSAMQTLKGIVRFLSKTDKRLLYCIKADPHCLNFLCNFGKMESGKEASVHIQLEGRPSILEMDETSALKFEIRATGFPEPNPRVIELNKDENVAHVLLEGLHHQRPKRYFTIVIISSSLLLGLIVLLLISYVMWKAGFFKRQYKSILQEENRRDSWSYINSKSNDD
open conformation of integrin α4β1, sequence (P05556 21-798): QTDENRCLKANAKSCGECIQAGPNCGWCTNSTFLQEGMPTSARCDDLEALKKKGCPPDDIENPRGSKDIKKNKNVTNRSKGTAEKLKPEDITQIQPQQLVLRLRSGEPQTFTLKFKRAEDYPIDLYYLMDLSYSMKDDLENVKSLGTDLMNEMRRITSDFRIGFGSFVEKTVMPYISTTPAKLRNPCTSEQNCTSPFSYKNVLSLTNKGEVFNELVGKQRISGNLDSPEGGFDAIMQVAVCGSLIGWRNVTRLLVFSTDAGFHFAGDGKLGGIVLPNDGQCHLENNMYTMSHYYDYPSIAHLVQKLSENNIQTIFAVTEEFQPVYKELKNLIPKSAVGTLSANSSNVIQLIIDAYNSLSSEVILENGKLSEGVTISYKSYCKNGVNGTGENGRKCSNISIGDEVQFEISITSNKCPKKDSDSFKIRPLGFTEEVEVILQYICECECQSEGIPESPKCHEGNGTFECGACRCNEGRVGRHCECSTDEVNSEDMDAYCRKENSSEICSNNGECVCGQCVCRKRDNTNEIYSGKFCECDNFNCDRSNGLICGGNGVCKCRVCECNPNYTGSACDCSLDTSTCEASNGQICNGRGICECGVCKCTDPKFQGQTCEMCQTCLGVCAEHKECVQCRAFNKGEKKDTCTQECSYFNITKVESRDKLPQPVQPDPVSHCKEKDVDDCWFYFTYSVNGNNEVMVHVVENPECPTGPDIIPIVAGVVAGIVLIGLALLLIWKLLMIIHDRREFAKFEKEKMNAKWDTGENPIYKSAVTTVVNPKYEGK

Cc1ccccc1NC(=O)Nc1ccc(CC(=O)N[C@@H](CCCCNC(=O)/C=C/c2cccnc2)C(=O)N[C@@H](CCCC(=O)O)C(=O)NC2(C(N)=O)CCCCC2)cc1 [LLP2A]
affinity for open conformation of integrin α4β1: picomolar-affinity
